{"source": "patent EP1129352B1", "about": "(priority 1998, dated 2000)", "key": {"[1]": {"target": "T1, protein phosphatase 2A (Homo sapiens, UniProt P67775)", "T1 construct": "purchased Upstate Biotechnology (Lake Placid, NY)", "T1 sequence (P67775 whole entry)": "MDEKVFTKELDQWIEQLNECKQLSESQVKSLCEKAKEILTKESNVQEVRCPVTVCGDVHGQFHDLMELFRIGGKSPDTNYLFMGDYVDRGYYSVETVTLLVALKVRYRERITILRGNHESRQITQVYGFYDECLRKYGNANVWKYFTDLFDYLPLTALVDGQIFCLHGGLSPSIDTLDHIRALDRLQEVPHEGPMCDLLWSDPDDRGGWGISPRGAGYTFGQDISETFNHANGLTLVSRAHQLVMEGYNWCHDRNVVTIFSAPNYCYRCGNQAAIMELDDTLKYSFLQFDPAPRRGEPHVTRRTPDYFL", "assay": "biochemical", "type": "binding"}, "[2]": {"target": "T1, protein phosphatase 2A", "assay": "biochemical", "type": "biochemical"}, "[3]": {"conditions": "read-out: % activity Competitive binding assay"}, "[4]": {"conditions": "read-out: % activity Protein phosphatase assay"}, "[5]": {"conditions": "0.4%, preincubated 30 minutes on ice, relative to control, ± SEM"}}, "note": "Where two headings read alike, the source gives them in different places. Numbered stars: 1 amine (or outer) side, 2 acyl side, 3 side chain; on linkers, the order of the positions; unused ones are H or OH. Bridge positions count the residues as written; N and C are the ends. Square brackets hold non-standard residues; d marks the D form. Peptide text beside a SMILES is read from it. Adda = CO[C@@H](Cc1ccccc1)[C@@H](C)/C=C(C)/C=C/[C@H](N[*:1])[C@H](C)C(=O)[*:2]; dAsp(3S-Me) = C[C@H](C(=O)[*:3])[C@@H](N[*:1])C(=O)[*:2]; d(γGlu) = O=C(O)[C@@H](CCC(=O)[*:2])N[*:1]; NMeDha = C=C(NC)C(=O)O"}
{"compound": "Nc1ncnc2c1ncn2[C@@H]1O[C@H](COP(=O)(O)OP(=O)(O)OP(=O)(O)O)[C@@H](O)[C@H]1O", "note": "[ATP]", "values": [{"measurement": "activity at 500 µM", "setting": "[1]; [3]", "result": "102 ± 1.7", "unit": "%"}, {"measurement": "activity at 2000 µM", "setting": "[1]; [3]", "result": "103.3 ± 0.2", "unit": "%"}, {"measurement": "activity at 500 µM", "setting": "[2]; [4]", "result": "29.8 ± 5.6", "unit": "%"}, {"measurement": "activity at 2000 µM", "setting": "[2]; [4]", "result": "9.8 ± 3.4", "unit": "%"}]}
{"compound": "C[C@H](CCC(=O)NCCC[N+](C)(C)CCCS(=O)(=O)[O-])[C@H]1CC[C@H]2[C@@H]3[C@H](O)C[C@@H]4C[C@H](O)CC[C@]4(C)[C@H]3C[C@H](O)[C@]12C", "note": "[CHAPS]", "values": [{"measurement": "% activity Competitive binding assay", "setting": "[1]", "result": "90.9 ± 9.9", "unit": "%"}, {"measurement": "% activity Protein phosphatase assay", "setting": "[2]", "result": "138.0 ± 34.4", "unit": "%"}]}
{"compound": "C[S+](C)[O-]", "note": "[DMSO, dimethyl sulfoxide]", "values": [{"measurement": "% activity Competitive binding assay", "setting": "[1]", "result": "72.8 ± 2.3", "unit": "%"}, {"measurement": "% activity Protein phosphatase assay", "setting": "[2]", "result": "97.9 ± 3.3", "unit": "%"}]}
{"compound": "CO", "note": "[MeOH]", "values": [{"measurement": "% activity Competitive binding assay", "setting": "[1]; 10%", "result": "73.9 ± 0.5", "unit": "%"}, {"measurement": "% activity Protein phosphatase assay", "setting": "[2]; 10%, preincubated 30 minutes on ice, relative to control, ± SEM", "result": "87.4 ± 4.1", "unit": "%"}]}
{"compound": "[Cl-].[Na+]", "note": "[NaCl]", "values": [{"measurement": "% activity Competitive binding assay", "setting": "[1]", "result": "41.2 ± 0.7", "unit": "%"}, {"measurement": "% activity Protein phosphatase assay", "setting": "[2]", "result": "44.4 ± 1.6", "unit": "%"}]}
{"compound": "[F-].[Na+]", "note": "[NaF]", "values": [{"measurement": "% activity Competitive binding assay", "setting": "[1]; 5 mM", "result": "102.0 ± 3.3", "unit": "%"}, {"measurement": "% activity Competitive binding assay", "setting": "[1]; 50 mM", "result": "101.5 ± 1.9", "unit": "%"}, {"measurement": "% activity Protein phosphatase assay", "setting": "[2]; 5 mM, preincubated 30 minutes on ice, relative to control, ± SEM", "result": "62.6 ± 0.4", "unit": "%"}, {"measurement": "% activity Protein phosphatase assay", "setting": "[2]; 50 mM, preincubated 30 minutes on ice, relative to control, ± SEM", "result": "7.7 ± 1.4", "unit": "%"}]}
{"compound": "O=P([O-])([O-])OP(=O)([O-])[O-].[Na+].[Na+].[Na+].[Na+]", "note": "[NaPPi]", "values": [{"measurement": "% activity Competitive binding assay", "setting": "[1]; 0.05 mM", "result": "101.4 ± 4.1", "unit": "%"}, {"measurement": "% activity Protein phosphatase assay", "setting": "[2]; 0.05 mM, preincubated 30 minutes on ice, relative to control, ± SEM", "result": "14.2 ± 1.2", "unit": "%"}]}
{"compound": "CC#N", "note": "[acetonitrile]", "values": [{"measurement": "% activity Competitive binding assay", "setting": "[1]", "result": "90.4 ± 5.4", "unit": "%"}, {"measurement": "% activity Protein phosphatase assay", "setting": "[2]", "result": "88.2 ± 2.7", "unit": "%"}]}
{"compound": "COC[C@@H]([C@H](O)[C@H](O)C(=O)NCC[C@H](C)c1nc(/C=C/C[C@@H]2O[C@]3(C[C@@H](O)[C@@H]2C)O[C@H]([C@H](C[C@H](O)[C@H](C)[C@H](O)[C@H](C)/C=C(C)/C(C)=C/C=C/C(C)=C\\C#N)OC)[C@H](OP(=O)(O)O)C3(C)C)co1)N(C)C", "note": "[calyculin A, reference compound]", "values": [{"measurement": "IC50", "setting": "[1]; read-out: IC50", "result": 0.251, "unit": "nM"}]}
{"compound": "C=C1C(=O)N[C@H](C)C(=O)N[C@@H](CC(C)C)C(=O)N[C@@H](C(=O)O)[C@H](C)C(=O)N[C@@H](CCCNC(=N)N)C(=O)N[C@@H](/C=C/C(C)=C/[C@H](C)[C@H](Cc2ccccc2)OC)[C@H](C)C(=O)N[C@@H](C(=O)O)CCC(=O)N1C", "note": "[microcystin-LR, reference compound] (R[Adda][d(γGlu)][NMeDha][dA]L[dAsp(3S-Me)]-OH; lactam N-7)", "values": [{"measurement": "IC50", "setting": "[1]; read-out: IC50", "result": 0.017, "unit": "nM"}]}
{"compound": "C/C=C1/C(=O)N[C@@H](C(=O)O)[C@H](C)C(=O)N[C@@H](CCCNC(=N)N)C(=O)N[C@@H](/C=C/C(C)=C/[C@H](C)[C@H](Cc2ccccc2)OC)[C@H](C)C(=O)N[C@@H](C(=O)O)CCC(=O)N1C", "note": "[nodularin, reference compound]", "values": [{"measurement": "IC50", "setting": "[1]; read-out: IC50", "result": 0.015, "unit": "nM"}]}
{"compound": "C=C1[C@@H](O)[C@@H]2O[C@]3(CC[C@H](/C=C/[C@@H](C)[C@@H]4CC(C)=C[C@@]5(O[C@H](C[C@@](C)(O)C(=O)O)CC[C@H]5O)O4)O3)CC[C@H]2O[C@@H]1[C@@H](O)C[C@H](C)[C@H]1O[C@@]2(CCCCO2)CC[C@H]1C", "note": "[okadaic acid, reference compound]", "values": [{"measurement": "IC50", "setting": "[1]", "result": 0.1, "unit": "nM"}]}
{"compound": "CO[C@H]([C@H](O)CC(=O)[C@@H](C)[C@@H](O)CC[C@@H](C)[C@@H]1O[C@]2(CC[C@@H](C)[C@H](CC[C@H](C)C(C)=O)O2)CC[C@@H]1C)[C@H](OC(=O)C[C@@H](O)C1=C(C)C(=O)OC1=O)C(C)C", "note": "[tautomycin, reference compound]", "values": [{"measurement": "IC50", "setting": "[1]", "result": 0.562, "unit": "nM"}]}
{"compound": "Nonidet P-40", "values": [{"measurement": "% activity Competitive binding assay", "setting": "[1]; 0.4%", "result": "106.0 ± 2.0", "unit": "%"}, {"measurement": "% activity Protein phosphatase assay", "setting": "[2]; [5]", "result": "61.1 ± 1.3", "unit": "%"}]}
{"compound": "Triton X-100", "values": [{"measurement": "% activity Competitive binding assay", "setting": "[1]; 0.4%", "result": "122.3 ± 1.0", "unit": "%"}, {"measurement": "% activity Protein phosphatase assay", "setting": "[2]; [5]", "result": "60.2 ± 5.7", "unit": "%"}]}
{"compound": "microcystin-YR [reference compound]", "values": [{"measurement": "IC50", "setting": "[1]; read-out: IC50", "result": 0.075, "unit": "nM"}]}
